For eight compounds, Ki results are on record in BindingDB's records for doi:10.1016/s0028-3908(97)00039-7 (Roche Bioscience, 1997).

Where “and” joins values, the source holds several entries; their conditions need not be identical. Identical values can stand only once.

This assay deals with 5-hydroxytryptamine receptor 4 (Rattus norvegicus, UniProt Q62758).
5-hydroxytryptamine receptor 4, sequence (Q62758 whole entry): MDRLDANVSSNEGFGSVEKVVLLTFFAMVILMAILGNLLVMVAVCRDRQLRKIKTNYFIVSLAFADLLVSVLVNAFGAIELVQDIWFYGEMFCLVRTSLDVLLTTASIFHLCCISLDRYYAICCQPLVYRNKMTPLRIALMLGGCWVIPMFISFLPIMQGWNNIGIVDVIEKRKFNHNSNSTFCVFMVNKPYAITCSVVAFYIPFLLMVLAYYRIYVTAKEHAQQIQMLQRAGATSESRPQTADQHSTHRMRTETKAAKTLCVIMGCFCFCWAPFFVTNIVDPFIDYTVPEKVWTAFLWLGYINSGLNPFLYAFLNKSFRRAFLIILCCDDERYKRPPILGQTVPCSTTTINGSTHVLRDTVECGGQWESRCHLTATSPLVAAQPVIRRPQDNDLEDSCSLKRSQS
Consider `COc1cc(N)c(Cl)cc1C(=O)OCC1CCN(CCc2ccc3c(c2)OCCO3)CC1` [RS 57639], for which the Ki is 2.51 nM and 1.25 nM. In the case of `COc1ccc2[nH]c(=O)n(C(=O)OC3CC4CCC(C3)N4C)c2c1` (stereo not drawn) [DAU 6285], the inhibition constant (Ki) is 79.4 nM and 63.1 nM and 158 nM.

As for `NCCc1c[nH]c2ccc(C(N)=O)cc12` [[3H]-5-carboxamidotryptamine], the inhibition constant Ki was 3160 nM and 5010 nM.

With `Cn1cc(C(=O)OCC2CCN(CCNS(C)(=O)=O)CC2)c2ccccc21` [GR 113808], the inhibitory constant (Ki) was 3.16 nM and 1.99 nM and 3.98 nM.

In the case of `CCCCN1CCC(COC(=O)c2cc(Cl)c(N)c3c2OCCO3)CC1` [CAS_121881], the inhibition constant (Ki) was 1.25 nM and 0.39 nM and 0.31 nM. Regarding `CCN(CC)CCOC(=O)c1cc(Cl)c(N)cc1OC` [SDZ-205557], the Ki is 19.9 nM and 25.1 nM.

With `CC(C)n1c(=O)n(C(=O)NC2CC3CCC(C2)N3C)c2ccccc21` (stereo not drawn) [BIMU 8], the inhibitory constant (Ki) is 15.8 nM and 50.1 nM and 79.4 nM. With `CN1C2CCC1CC(OC(=O)c1c[nH]c3ccccc13)C2` (stereo not drawn), the Ki was 100 nM and 251 nM and 501 nM.

A word on the Ki: it is a measure of affinity in units of concentration, obtained from inhibition or displacement.
